Holding throughout (assay type): protein-complex assay
Experiment [1] deals with T1, Ecdysone receptor (Lucilia cuprina, UniProt O18531+Q962I5).
T1 sequence (O18531 whole entry): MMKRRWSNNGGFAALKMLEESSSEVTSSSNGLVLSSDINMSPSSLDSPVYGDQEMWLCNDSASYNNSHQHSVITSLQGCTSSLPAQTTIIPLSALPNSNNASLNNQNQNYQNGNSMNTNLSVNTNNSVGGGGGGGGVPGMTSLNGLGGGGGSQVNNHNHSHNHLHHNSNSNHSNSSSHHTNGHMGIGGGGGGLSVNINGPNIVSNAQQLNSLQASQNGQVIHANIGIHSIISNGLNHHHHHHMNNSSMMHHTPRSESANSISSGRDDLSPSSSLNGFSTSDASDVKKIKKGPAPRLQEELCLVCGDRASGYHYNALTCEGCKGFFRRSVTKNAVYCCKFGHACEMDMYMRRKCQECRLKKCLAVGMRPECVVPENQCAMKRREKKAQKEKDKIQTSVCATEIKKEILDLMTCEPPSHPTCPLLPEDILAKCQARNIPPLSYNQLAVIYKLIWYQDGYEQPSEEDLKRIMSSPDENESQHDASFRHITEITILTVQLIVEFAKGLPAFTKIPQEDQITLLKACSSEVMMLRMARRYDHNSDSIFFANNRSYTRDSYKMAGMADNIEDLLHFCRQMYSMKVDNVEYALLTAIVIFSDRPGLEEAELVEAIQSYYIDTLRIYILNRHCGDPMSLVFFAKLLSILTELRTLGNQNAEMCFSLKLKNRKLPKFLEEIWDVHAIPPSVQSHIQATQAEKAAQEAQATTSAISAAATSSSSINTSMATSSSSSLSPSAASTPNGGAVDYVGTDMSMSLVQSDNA
T1 sequence (Q962I5 whole entry): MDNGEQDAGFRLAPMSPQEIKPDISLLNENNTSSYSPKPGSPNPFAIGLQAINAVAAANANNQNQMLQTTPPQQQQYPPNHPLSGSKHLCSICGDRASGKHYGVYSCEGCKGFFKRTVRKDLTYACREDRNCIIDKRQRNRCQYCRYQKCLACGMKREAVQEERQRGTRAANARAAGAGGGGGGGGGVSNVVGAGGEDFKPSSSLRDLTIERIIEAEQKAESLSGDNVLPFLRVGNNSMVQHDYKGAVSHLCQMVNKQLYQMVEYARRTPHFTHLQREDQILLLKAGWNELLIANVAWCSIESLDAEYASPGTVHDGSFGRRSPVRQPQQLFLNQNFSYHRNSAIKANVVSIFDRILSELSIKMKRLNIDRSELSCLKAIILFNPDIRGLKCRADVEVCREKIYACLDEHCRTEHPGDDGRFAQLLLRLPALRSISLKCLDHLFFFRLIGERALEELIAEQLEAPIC
Nature of the experiment: Binding affinity to Lucilia cuprina EcR.

The target of experiment [2] is T2, Ecdysone receptor (Plodia interpunctella, UniProt Q6IVK1+Q6RVD3).
T2 sequence (Q6RVD3 whole entry): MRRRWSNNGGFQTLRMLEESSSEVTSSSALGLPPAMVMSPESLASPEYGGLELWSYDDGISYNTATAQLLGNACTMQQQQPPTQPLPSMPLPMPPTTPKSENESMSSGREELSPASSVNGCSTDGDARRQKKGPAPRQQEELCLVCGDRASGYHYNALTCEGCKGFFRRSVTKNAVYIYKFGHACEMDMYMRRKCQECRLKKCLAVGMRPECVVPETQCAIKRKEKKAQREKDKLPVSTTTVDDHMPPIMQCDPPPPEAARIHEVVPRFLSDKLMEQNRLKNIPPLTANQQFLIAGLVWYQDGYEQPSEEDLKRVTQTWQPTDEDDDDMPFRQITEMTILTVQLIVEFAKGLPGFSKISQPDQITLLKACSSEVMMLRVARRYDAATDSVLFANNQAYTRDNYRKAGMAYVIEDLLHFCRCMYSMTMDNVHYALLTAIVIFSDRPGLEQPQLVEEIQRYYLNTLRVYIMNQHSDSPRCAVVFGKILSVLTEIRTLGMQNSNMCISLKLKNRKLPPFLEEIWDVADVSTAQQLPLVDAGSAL
T2 sequence (Q6IVK1 whole entry): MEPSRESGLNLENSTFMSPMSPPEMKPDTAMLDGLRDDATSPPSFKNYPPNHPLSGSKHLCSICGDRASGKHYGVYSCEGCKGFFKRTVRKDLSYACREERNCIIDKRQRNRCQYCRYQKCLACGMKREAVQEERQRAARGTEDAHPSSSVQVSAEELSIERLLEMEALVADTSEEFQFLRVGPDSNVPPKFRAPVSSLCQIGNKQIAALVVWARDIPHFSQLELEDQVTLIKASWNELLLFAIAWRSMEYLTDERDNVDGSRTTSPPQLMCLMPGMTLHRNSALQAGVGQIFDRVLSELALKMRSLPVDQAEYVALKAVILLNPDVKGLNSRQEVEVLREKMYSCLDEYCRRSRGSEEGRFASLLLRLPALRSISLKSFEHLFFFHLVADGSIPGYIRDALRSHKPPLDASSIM
In words: Binding affinity to Plodia interpunctella (Indian meal moth ) EcR.

In experiment [3] the target is T3, Ecdysone receptor (Heliothis virescens, UniProt O18473+Q7SIF6).
T3 sequence (O18473 whole entry): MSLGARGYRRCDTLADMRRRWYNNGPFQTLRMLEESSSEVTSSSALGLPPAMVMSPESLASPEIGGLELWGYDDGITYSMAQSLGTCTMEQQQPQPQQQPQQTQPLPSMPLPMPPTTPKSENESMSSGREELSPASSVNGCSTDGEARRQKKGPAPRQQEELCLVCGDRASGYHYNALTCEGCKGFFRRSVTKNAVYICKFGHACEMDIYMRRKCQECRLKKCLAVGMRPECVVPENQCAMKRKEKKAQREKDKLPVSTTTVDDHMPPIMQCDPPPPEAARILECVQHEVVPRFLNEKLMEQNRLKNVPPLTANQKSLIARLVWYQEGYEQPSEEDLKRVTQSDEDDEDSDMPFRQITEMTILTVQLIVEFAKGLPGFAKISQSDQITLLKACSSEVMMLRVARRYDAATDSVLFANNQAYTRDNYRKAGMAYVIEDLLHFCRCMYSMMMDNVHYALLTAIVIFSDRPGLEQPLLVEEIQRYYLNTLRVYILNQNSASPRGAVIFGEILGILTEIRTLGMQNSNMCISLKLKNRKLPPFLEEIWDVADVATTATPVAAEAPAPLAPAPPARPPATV
T3 sequence (Q7SIF6 whole entry): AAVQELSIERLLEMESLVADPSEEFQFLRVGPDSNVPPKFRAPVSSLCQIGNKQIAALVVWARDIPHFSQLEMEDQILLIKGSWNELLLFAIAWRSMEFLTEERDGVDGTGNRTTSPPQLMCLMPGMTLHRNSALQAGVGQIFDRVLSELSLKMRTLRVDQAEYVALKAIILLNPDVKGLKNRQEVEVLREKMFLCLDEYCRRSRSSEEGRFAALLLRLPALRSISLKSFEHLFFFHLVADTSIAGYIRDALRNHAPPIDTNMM
In words: Binding affinity to Heliothis virescens (tobacco budworm) EcR.

For the compound `CCc1ccc(C(=O)NN(C(=O)c2cc(C)cc(C)c2)C(C)(C)C)cc1` [TEBUFENOZIDE], the Ki on Ecdysone receptor [1] is 158 nM; on Ecdysone receptor [2], 3.16 nM; on Ecdysone receptor [3], 3.16 nM.

The values are drawn from ChEMBL document CHEMBL3045439, “Isoforms of the heteropteran Nezara viridula ecdysone receptor: protein characterisation, RH5992 insecticide binding and homology modelling” (Pest Manag Sci, 2011).
